Measured values reported in patent US7968291B2, “RNA bioassay” (The Hamner Institute for Health Sciences, priority 2002, dated 2011).
Entries after “also recorded” stand apart in the source; their conditions may differ.

Tested on: Sprague_Dawley/Crl:CD (SD)IGS BR rats
Experiment: Liver histopathology of treated rats
Assay type: in vivo, rat
Details: 1400 mg/kg oral gavage, 24 hours
Method: Four control rats were administered a quantity of methylcellulose vehicle (no acetaminophen) having a volume approximately equal to that received by treated rats. After 24 hours, all rats were euthanized and livers were collected by necropsy. At necropsy, blood samples were collected via the vena cava (approximately 0.5 ml) in microtainer tubes. All livers were then fixed in 10% neutral buffered formalin and processed for histopathology by trimming trimmed, dehydrating, embedding in paraffin, sectioning, mounting on glass slides, and staining with hematoxylin and eosin stains.
Microscopically, there was a moderate centrilobular degeneration which was multifocal in two of the animals and was characterized by hepatocellular degeneration and necrosis, edema fluid, hemorrhages, and infiltration of mononuclear cells and occasional neutrophils in the other two animals. The severity and distribution of the microscopic lesions correlated well with the measured increases in ALT, AST, 5′NT, and albumin RT-PCR.

CC(=O)Nc1ccc(O)cc1 [acetaminophen]
Histopathological analysis of liver (four rats): moderate levels of damage | Hepatocellular Degeneration (individual rats (animals 1-4)): Diffuse; also recorded: Multifocal
